Results taken from patent publication US20090143285A1, “TARGET PROTEIN AND TARGET GENE FOR DRUG DISCOVERY AND SCREENING METHOD” (REVERSE PROTEOMICS RESEARCH INSTITUTE CO., LTD., priority 2005, published 2009).
Residue numbers refer to the chain shown, from its start. Entries after “also recorded” stand apart in the source; their conditions may differ.

Experiments:
FLJ39553-derived protein = biological target: T1, FLJ39553-derived protein (Homo sapiens, UniProt Q6P6B1, N326S); assay: SEC/MS interaction analysis, FLJ39553-derived protein (hypothetical protein FLJ39553); format: binding; settings: TSKgel super SW2000 micro-LC column (1.0 mm ID×30 mm); presence vs absence of protein; data not shown
T1 construct: His-tag (N); made in house; host or cells: Escherichia coli BL21star(DE3)pLysS
T1 sequence (Q6P6B1 1-374 N326S): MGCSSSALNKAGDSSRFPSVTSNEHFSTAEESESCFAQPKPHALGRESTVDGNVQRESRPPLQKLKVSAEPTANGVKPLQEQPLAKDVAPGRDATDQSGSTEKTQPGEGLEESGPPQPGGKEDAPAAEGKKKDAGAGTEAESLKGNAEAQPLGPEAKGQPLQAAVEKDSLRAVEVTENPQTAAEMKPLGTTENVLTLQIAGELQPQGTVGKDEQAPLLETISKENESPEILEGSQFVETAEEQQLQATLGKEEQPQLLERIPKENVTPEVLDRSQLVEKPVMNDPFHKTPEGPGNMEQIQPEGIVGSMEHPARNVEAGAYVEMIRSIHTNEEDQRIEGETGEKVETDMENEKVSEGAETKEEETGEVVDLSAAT
Description: (§1) To analyze the interactions between commonly used drugs and proteins expressed from human full-length cDNA clones while keeping both the proteins and the compounds in non-modified, non-immobilized state, size exclusion chromatography (SEC) and mass analysis were used in combination. The specific procedures are shown below.
(§2) The compound-protein mixture prepared in step 1 was subjected to chromatography using an SEC column, the compound and the protein were separated by SEC, and the compound that interacted with the bound compound or protein contained in the protein fraction was analyzed using a mass analyzer.
(§3) Protein concentrations were measured using BCA Protein Assay (PIERCE), in consideration of the purity calculated by SDS-PAGE.
(§4) Mass analysis was performed using LCQ DECA XP (Thermoelectron) or Q-TOF micro (Micromass), equipped with an ESI probe. […]
(§5) In the 384-well spin column method, Unifilter 100 (Whatman), packed with 10 μL (dry volume) of Bio-Gel P6 (BIO-RAD) and swollen with milliQ water, was used as the SEC column. […] 2-μL of mass analysis samples were injected using an autosampler at 2-minute intervals; the mass spectral intensity of the compound was measured to retrieve the spectral intensity of the pharmaceutical compound contained in the SEC spin column filtrate (protein fraction eluted from SEC).

[1] = tested on: FLJXXXXX-derived proteins; assay: SEC/MS spin column interaction analysis of FLJXXXXX-derived proteins and various compounds (Tables 30-1 to 30-4); format: binding, human; settings: SEC spin column filtrate, spectral intensity increased with doses of compound and protein
FLJ11211-derived protein = biological target: T2, FLJ11211-derived protein (Homo sapiens, UniProt Q9Y222, I712M); assay: SEC/MS interaction analysis, FLJ11211-derived protein (DMTF1; DMP1); format: binding; settings: spin column method; mixture with protein vs buffer solution alone; data not shown
T2 construct: corresponds to a partial peptide of human DMP1 on the C-terminal side thereof (303 amino acid residues); His-tag (N); made in house; host or cells: Escherichia coli BL21star(DE3)pLysS
T2 sequence (Q9Y222 458-760 I712M): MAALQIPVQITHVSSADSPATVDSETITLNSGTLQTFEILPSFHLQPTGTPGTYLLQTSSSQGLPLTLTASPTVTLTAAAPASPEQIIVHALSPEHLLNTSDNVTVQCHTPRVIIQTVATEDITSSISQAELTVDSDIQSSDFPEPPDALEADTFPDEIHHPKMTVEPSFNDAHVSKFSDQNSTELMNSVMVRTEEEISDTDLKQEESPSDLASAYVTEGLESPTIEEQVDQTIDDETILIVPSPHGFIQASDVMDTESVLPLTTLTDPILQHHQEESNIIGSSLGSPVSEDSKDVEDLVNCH
Description: as §1, §2, §3, §4, §5

FLJ38897-derived protein = biological target: T3, FLJ38897-derived protein (Homo sapiens, UniProt P57764); assay: SEC/MS interaction analysis, FLJ38897-derived protein (GSDMDC1); format: binding; settings: spin column method; mixture with protein vs buffer solution alone; data not shown
T3 construct: His-tag (N); made in house; host or cells: Escherichia coli BL21star(DE3)pLysS
T3 sequence (P57764 265-484): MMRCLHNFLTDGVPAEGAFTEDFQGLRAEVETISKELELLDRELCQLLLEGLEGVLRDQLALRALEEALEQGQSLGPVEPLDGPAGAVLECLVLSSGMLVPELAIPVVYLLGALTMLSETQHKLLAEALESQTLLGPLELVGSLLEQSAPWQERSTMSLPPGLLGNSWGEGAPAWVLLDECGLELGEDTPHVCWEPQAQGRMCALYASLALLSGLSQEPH
Description: as §1, §2, §3
Mass analysis was performed using LCQ DECA XP (Thermoelectron) or Q-TOF micro (Micromass), equipped with an ESI probe. The LC pump used was Agilent 1100 (Yokogawa Analytical Systems), and the autosampler used was HTC-PAL (CTC Analytics) equipped with a cooling stacker. The SEC column used was a micro-LC column or a 384-well spin column. […]
In the 384-well spin column method, Unifilter 100 (Whatman), packed with 10 μL (dry volume) of Bio-Gel P6 (BIO-RAD) and swollen with milliQ water, was used as the SEC column. […] The SEC spin column was mounted on an acetonitrile-aliquoted 384-well U-bottom plate and centrifuged; the SEC spin column filtrate, which is a protein fraction, was recovered in 50% acetonitrile. The protein precipitate produced by the acetonitrile was removed via centrifugation and filtration for deproteinization; the resulting filtrate was concentrated by centrifugal concentration and re-dissolved in 10 μL of 50% methanol to obtain a mass analysis sample. The mobile phase supplied to the mass analyzer was 0.1% formic acid/50% methanol solution in the positive ion mode, and 0.1% ammonia/50% methanol solution in the negative ion mode; these mobile phases were used at a flow rate of 40 μL/min. 2-μL of mass analysis samples were injected using an autosampler at 2-minute intervals; the mass spectral intensity of the compound was measured to retrieve the spectral intensity of the pharmaceutical compound contained in the SEC spin column filtrate (protein fraction eluted from SEC).

FLJ41991-derived protein = biological target: T4, FLJ41991-derived protein (Homo sapiens, UniProt P57764, E293G); assay: SEC/MS interaction analysis, FLJ41991-derived protein (GSDMDC1); format: binding
T4 construct: His-tag (N); made in house; host or cells: Escherichia coli BL21star(DE3)pLysS (pDEST17)
T4 sequence (P57764 265-484 E293G): T3 sequence (P57764 265-484) with E29G
Procedure, shortened: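 Compound–protein mixtures separated by SEC (micro-LC column with 10 mM ammonium acetate mobile phase, or Bio-Gel P6 spin column) and analysed by ESI mass spectrometry. Interaction inferred from a protein-dependent shift in the compound's mass chromatogram, or from compound signal intensity in the eluted protein fraction.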

FLJ22317-derived protein = biological target: T5, FLJ22317-derived protein (Homo sapiens, UniProt Q9NWV8); assay: SEC/MS interaction analysis, FLJ22317-derived protein (HSPC142 protein); format: binding; settings: TSKgel super SW2000 micro-LC column (1.0 mm ID×30 mm); presence vs absence of protein; data not shown
T5 construct: His-tag (N); made in house; host or cells: Escherichia coli BL21star(DE3)pLysS
Description: The specific procedures are shown below.

FLJ25288-derived protein = biological target: T6, FLJ25288-derived protein (Homo sapiens, UniProt P09525, T85M); assay: SEC/MS interaction analysis, FLJ25288-derived protein (Annexin A4); format: binding; settings: TSKgel super SW2000 micro-LC column (1.0 mm ID×30 mm); presence vs absence of protein; data not shown
T6 construct: His-tag (N); made in house; host or cells: Escherichia coli BL21star(DE3)pLysS
T6 sequence (P09525 1-321 isoform P09525-3 T87M): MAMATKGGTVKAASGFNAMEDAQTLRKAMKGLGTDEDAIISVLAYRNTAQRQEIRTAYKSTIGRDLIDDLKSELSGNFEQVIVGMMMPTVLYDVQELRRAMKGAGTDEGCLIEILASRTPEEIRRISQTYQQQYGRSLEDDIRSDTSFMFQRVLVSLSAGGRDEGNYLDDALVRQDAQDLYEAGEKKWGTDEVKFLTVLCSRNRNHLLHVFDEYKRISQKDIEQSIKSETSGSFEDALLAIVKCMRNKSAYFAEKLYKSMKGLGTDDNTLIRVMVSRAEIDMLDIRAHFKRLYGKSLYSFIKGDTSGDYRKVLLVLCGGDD
Description: as §1, §2, §3, §4, §5

FLJ10537-derived protein = biological target: T7, FLJ10537-derived protein (Homo sapiens, UniProt Q9NR28); assay: SEC/MS interaction analysis, FLJ10537-derived protein (DIABLO homolog; SMAC); format: binding; settings: TSKgel super SW2000 micro-LC column (1.0 mm ID×30 mm); presence vs absence of protein; data not shown
T7 construct: His-tag (N); made in house; host or cells: Escherichia coli BL21star(DE3)pLysS
T7 sequence (Q9NR28 1-186 isoform Q9NR28-2): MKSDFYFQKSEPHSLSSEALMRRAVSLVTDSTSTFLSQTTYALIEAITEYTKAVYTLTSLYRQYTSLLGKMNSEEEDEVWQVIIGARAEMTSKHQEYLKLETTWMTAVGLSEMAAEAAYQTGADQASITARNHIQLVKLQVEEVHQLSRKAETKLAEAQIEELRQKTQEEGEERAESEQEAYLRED
Description: as §1, §2, §3, §4, §5

T5 sequence (Q9NWV8 whole entry): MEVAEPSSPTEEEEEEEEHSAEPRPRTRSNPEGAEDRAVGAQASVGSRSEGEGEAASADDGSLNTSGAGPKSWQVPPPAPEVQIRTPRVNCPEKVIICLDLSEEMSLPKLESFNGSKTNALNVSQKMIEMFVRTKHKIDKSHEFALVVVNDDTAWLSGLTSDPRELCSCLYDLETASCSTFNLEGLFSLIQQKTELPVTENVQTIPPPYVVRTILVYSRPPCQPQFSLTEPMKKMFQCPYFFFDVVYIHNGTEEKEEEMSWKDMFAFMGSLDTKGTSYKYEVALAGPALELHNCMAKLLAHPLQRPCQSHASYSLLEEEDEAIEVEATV

C[C@@H]1[C@H](O)[C@@H](C)/C=C/C=C/C=C/C=C/C=C/C=C/C=C/[C@H](O[C@@H]2O[C@H](C)[C@@H](O)[C@H](N)[C@@H]2O)C[C@@H]2O[C@](O)(C[C@@H](O)C[C@@H](O)[C@H](O)CC[C@@H](O)C[C@@H](O)CC(=O)O[C@H]1C)C[C@H](O)[C@H]2C(=O)O [amphotericin B]
interaction judged from mass chromatogram of the compound (elution from SEC micro-LC column) (FLJ39553-derived protein): there was an interaction
FLJ No of the derived protein with which the compound was judged to exhibit a concentration-dependent interaction [1]: FLJ39553

CC(C)(C)c1ccc(C(O)CCCN2CCC(C(O)(c3ccccc3)c3ccccc3)CC2)cc1 (stereo not drawn) [terfenadine]
interaction judged from mass spectrum peak intensity of the compound in the spin column filtrate (FLJ11211-derived protein): there was an interaction
interaction judged from mass spectrum peak intensity of the compound in the spin column filtrate (FLJ38897-derived protein): an interaction was observed
spectrum intensity of the compound in the SEC spin column filtrate (FLJ41991-derived protein; compound 12.5 μM, protein 0 μM): 26814
spectrum intensity of the compound in the SEC spin column filtrate (FLJ41991-derived protein; compound 12.5 μM, protein 5 μM): 200843
spectrum intensity of the compound in the SEC spin column filtrate (FLJ41991-derived protein; compound 12.5 μM, protein 10 μM): 376865
spectrum intensity of the compound in the SEC spin column filtrate (FLJ41991-derived protein; compound 12.5 μM, protein 25 μM): 1734729
spectrum intensity of the compound in the SEC spin column filtrate (FLJ41991-derived protein; compound 25 μM, protein 0 μM): 87636
spectrum intensity of the compound in the SEC spin column filtrate (FLJ41991-derived protein; compound 25 μM, protein 5 μM): 311313
spectrum intensity of the compound in the SEC spin column filtrate (FLJ41991-derived protein; compound 25 μM, protein 10 μM): 949465
spectrum intensity of the compound in the SEC spin column filtrate (FLJ41991-derived protein; compound 25 μM, protein 25 μM): 4190413
spectrum intensity of the compound in the SEC spin column filtrate (FLJ41991-derived protein; compound 62.5 μM, protein 0 μM): 231173
spectrum intensity of the compound in the SEC spin column filtrate (FLJ41991-derived protein; compound 62.5 μM, protein 5 μM): 1759965
spectrum intensity of the compound in the SEC spin column filtrate (FLJ41991-derived protein; compound 62.5 μM, protein 10 μM): 5619658
spectrum intensity of the compound in the SEC spin column filtrate (FLJ41991-derived protein; compound 62.5 μM, protein 25 μM): 9678283
interaction judged from spectrum intensity of the compound in the SEC spin column filtrate (protein fraction eluted from SEC) (FLJ41991-derived protein; spin column method, doses of both compound and protein varied): concentration-dependent interaction
FLJ No of the derived protein with which the compound was judged to exhibit a concentration-dependent interaction [1]: FLJ11211; also recorded: FLJ38897; also recorded: FLJ41991

solanine α
interaction judged from mass chromatogram of the compound (elution from SEC micro-LC column) (FLJ22317-derived protein): there was an interaction
FLJ No of the derived protein with which the compound was judged to exhibit a concentration-dependent interaction [1]: FLJ22317; also recorded: FLJ39553

CN(Cc1cnc2nc(N)nc(N)c2n1)c1ccc(C(=O)N[C@@H](CCC(=O)O)C(=O)O)cc1 (racemic) [amethopterin (R, S), amethopterin]
interaction judged from mass chromatogram of the compound (elution from SEC micro-LC column) (FLJ25288-derived protein): there was an interaction
FLJ No of the derived protein with which the compound was judged to exhibit a concentration-dependent interaction [1]: FLJ25288

COc1c2occc2cc2ccc(=O)oc12 [methoxsalen]
interaction judged from mass chromatogram of the compound (elution from SEC micro-LC column) (FLJ10537-derived protein): there was an interaction
FLJ No of the derived protein with which the compound was judged to exhibit a concentration-dependent interaction [1]: FLJ10537
